# Reference: US20090291857A1, “METHODS TO IDENTIFY INHIBITORS OF THE UNFOLDED PROTEIN RESPONSE” (THE BOARD OF TRUSTEES OF THE LELAND STANFORD JUNIOR …, priority 2006, published 2009)
# Tests used:
# [1] = tested on: ATF6; assay: ATF6 cleavage in hypoxic HT1080 cells (Western blot); assay type: cell-based, human; details: 2.5 μM, hypoxia
# Protocol: A. Effect of irestatin 9389 on PERK and ATF6 pathways. HT1080 cells were treated with vehicle alone (lanes 1-4) or 2.5 μM irestatin 9389 (lanes 5-8) and cultured under aerobic conditions for 18 hours (N) or shifted to hypoxia for the indicated times. Protein lysates were analyzed by Western blot analysis using antisera specific for ATF6 (top), CHOP/GADD153 (middle) or actin (bottom). Arrow indicates the cleaved, transcriptionally active form of ATF6. B. Cleavage of caspase-3 in irestatin-treated cells under hypoxia. HT1080 cells were cultured in normoxia (N) or under hypoxia for 36 hours (H 36) in absence or presence of irestatin 9389 (2.5 μM). Arrows indicate proteolytically cleaved caspase-3. C. Colony formation assay. HT1080 cells were treated as in B under normoxia (N) or hypoxia for 48 hours (H 48). Cells were harvested, counted, and allowed to grow under normal culture conditions for 11-12 days. Colonies were visualized with crystal violet staining. D. Quantification of clonogenic survival assay. Values represent the mean+/−SEM from at least 4 independent experiments. E. TUNEL staining of cells treated as in C. F. Quantification of TUNEL-positive cells. Values represent the mean+/−SEM from at least 3 experiments. […] Cells were harvested at the indicated times and counted by hemocytometer. Values represent the mean calculated from triplicate experiments +/−SEM. […]
# [2] = Histopathological analysis of major organs; assay type: in vivo, mouse; details: three doses, 50 mg/kg
# Protocol: Complete blood counts (CBC's) and clinical chemistry panels were performed on blood obtained by cardiac puncture after euthanasia with CO2. Gross necropsies were performed, all major viscera were harvested, fixed in 10% buffered neutral formalin, routinely processed for paraffin embedding, and stained with hematoxylin and eosin (H&E). Sections were analyzed by a board-certified veterinary pathologist (DMB).
# Pancreas and liver specimens recovered from mice treated with three doses of either vehicle (top) or irestatin 9389 (50 mg/kg; bottom) were sectioned and stained with hematoxylin and eosin.
# The increased sensitivity of irestatin-treated cells to hypoxic stress in vitro indicate that selective inhibition of IRE1α signaling could impact tumor growth. […] In contrast, XBP-1s was not detected in normal pancreas specimens (0/20), and infrequently observed in chronic pancreatitis (1/29) (FIG. 15). To explore the effects to irestatin 9389 in vivo, we first established animal dosing parameters using real-time bioluminescence imaging of SCID mice that had been implanted subcutaneously (s.c.) with tumor cells stably expressing the XBP-luciferase reporter. […] The XBP-luciferase signal returned to basal levels by 24 hours after treatment. […] (FIG. 16).
# [3] = tested on: PANC1 pancreatic adenocarcinoma cells; assay: PANC1 tumor growth in nude mice; assay type: in vivo, mouse; details: 60 mg/kg bolus every 48 hours, 5 doses, 5-7 tumors per group
# Protocol: Dose: 60 mg/kg ip bolus injection every 48 hours. 5 total doses. 5-7 tumors per group. PANC1 pancreatic adenocarcinoma cell line.
# PANC1 pancreatic adenocarcinoma cells were implanted subcutaneously into nude mice. Mice were then given a bolus injection of one of the inventive irestatins (1401, 9337, 3611 or 9389) at a dose of 60 mg/kg every 48 hours for a total of 5 doses, with 5-7 tumors being treated per group.
smiles,measurement,setting,value
Cc1csc(NC(=O)CSc2nc3c(c(C(F)(F)F)c2C#N)CCC3)n1 [Compound 9389],proteolytic cleavage of ATF6 into active 50 kDa form,[1],significantly increased
same,histopathology of all major organs versus vehicle,[2],no significant differences
same,tumor growth,[3],"significant tumor growth was observed in untreated mice, but not in mice treated with the irestatins"
